Counter-ions that a name gives are not always drawn.
Assays:
pancreatic cancer = conditions: diabetic patients taking metformin versus those taking no metformin; cited from earlier work
[1] = tested on: colorectal cancer cells having a mutation in KRAS gene and BRAF gene; conditions: contact with high-concentration vitamin C; cited from earlier work
[2] = tested on: recurrent pancreatic cancer (pancreatic body cancer) (Stage IVa); test: Example 2: case of recurrent pancreatic cancer (pancreatic body cancer); format: in vivo, human
Description: Patient with recurrent pancreatic cancer (pancreatic body cancer) (Stage IVa)
The patient also had diabetes.

human lung cancer cells = conditions: pHi of human lung cancer cells rises from 7.0 to 7.4; cited from earlier work

CN(C)C(=N)NC(=N)N [metformin]
reduction of risk of development of pancreatic cancer (pancreatic cancer): 62%

O=C1O[C@H]([C@@H](O)CO)C(O)=C1O [vitamin C, L-ascorbic acid]
effect on the cells [1]: killed

Nc1ccn([C@@H]2O[C@H](CO)[C@@H](O)C2(F)F)c(=O)n1 [Gemzar, gemcitabine]
level of tumor marker (CA19-9) ([2]; Gemzar 800 mg/m^2 every other week alone (Oct-Dec 2016), combination from mid February 2017 (NaHCO3 3 g/day, vitamin C 25 g/day once a week, metformin hydrochloride 250 mg/day)): significantly increased | MRI inspection ([2]; middle of December 2016, Gemzar 800 mg/m^2 every other week alone): suspected to have peritoneal dissemination

COc1cccc2c1C(=O)c1c(O)c3c(c(O)c1C2=O)C[C@@](O)(C(=O)CO)C[C@@H]3O[C@H]1C[C@H](N)[C@H](O)[C@H](C)O1 [doxorubicin hydrochloride]
increase of resistance to the anti-cancer agent (human lung cancer cells): 2,000 times

Reference: patent US20200138855A1, “NOVEL ANTINEOPLASTIC DRUG BASED ON SPECIFICITY OF CANCER-CELL METABOLISM” (priority 2017, published 2020)
